Measurements from patent US20140107100A1, “Benzoxazepines as Inhibitors of PI3K/mTOR and Methods of Their Use and Manufacture” (EXELIXIS, INC., priority 2010, published 2014).

How the values were obtained:
PI3Kα = PI3Kα (Homo sapiens, UniProt P42336); assay: PI3K biochemical assay, ATP consumption by luciferase-luciferin chemiluminescence; settings: 3 nM enzyme, 10 μM PIP2, approximately 2 h; read-out: IC50 in the PI3K-alpha assay
Method: P13Kα activity was measured as the percent of ATP consumed following the kinase reaction using luciferase-luciferin-coupled chemiluminescence. Reactions were conducted in 384-well white, medium binding microliter plates (Greiner). Kinase reactions were initiated by combining test compounds. ATP, substrate (PIP2), and kinase in a 20 μL volume in a buffer solution. The standard P13Kalpha assay buffer was composed 50 mM Tris, pH 7.5, 1 mM EGTA, 10 mM MgCl2, 1 mM DTT and 0.03% CHAPS. The standard assay concentrations for enzyme, ATP, and substrate were 3 nM, IpM, and 10 μM, respectively. The reaction mixture was incubated at ambient temperature for approximately 2 h. Following the kinase reaction, a 10 μL aliquot of luciferase-luciferin mix (Promega Kinase-Glo) was added and the chemiluminescence signal measured using a Victor2 or EnVision (Perkin Elmer). Total ATP consumption was limited to 40-60% and IC50 values of control compounds correlate well with literature references. Substituting P13Kα with P13Kβ, […], or PI3Kδ, the inhibitory activity of the compounds for the other isoforms of P13-K were measured. For the P13Kβ and P13Kβ assays, enzyme concentrations were 10 nM and 4 nM. respectively. For the P13γ assay, enzyme concentration was 40 nM, the incubation time was 1 h, and the concentration of MgCl2 in the assay buffer was 5 mM.

mTOR/GbL/Raptor (mTORC1) = mTOR/GbL/Raptor (mTORC1) (Homo sapiens, UniProt P42345); assay: mTOR/GbL/Raptor (mTORC1) ELISA assay, phosphorylation of 4E-BP1; assay type: biochemical; settings: 0.2 nM mTORC1, 40 uM ATP, 50 nM NHis-tagged 4E-BP1, 120 minutes; read-out: IC50 in this assay (mTORC1 ELISA)
In short: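 Phospho-4E-BP1 was quantified by luminescent ELISA (anti-phospho-4E-BP1 IgG, HRP-tagged secondary) after capture of the His-tagged substrate on Ni-chelate plates.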

Sequence of PI3Kα (P42336 whole entry): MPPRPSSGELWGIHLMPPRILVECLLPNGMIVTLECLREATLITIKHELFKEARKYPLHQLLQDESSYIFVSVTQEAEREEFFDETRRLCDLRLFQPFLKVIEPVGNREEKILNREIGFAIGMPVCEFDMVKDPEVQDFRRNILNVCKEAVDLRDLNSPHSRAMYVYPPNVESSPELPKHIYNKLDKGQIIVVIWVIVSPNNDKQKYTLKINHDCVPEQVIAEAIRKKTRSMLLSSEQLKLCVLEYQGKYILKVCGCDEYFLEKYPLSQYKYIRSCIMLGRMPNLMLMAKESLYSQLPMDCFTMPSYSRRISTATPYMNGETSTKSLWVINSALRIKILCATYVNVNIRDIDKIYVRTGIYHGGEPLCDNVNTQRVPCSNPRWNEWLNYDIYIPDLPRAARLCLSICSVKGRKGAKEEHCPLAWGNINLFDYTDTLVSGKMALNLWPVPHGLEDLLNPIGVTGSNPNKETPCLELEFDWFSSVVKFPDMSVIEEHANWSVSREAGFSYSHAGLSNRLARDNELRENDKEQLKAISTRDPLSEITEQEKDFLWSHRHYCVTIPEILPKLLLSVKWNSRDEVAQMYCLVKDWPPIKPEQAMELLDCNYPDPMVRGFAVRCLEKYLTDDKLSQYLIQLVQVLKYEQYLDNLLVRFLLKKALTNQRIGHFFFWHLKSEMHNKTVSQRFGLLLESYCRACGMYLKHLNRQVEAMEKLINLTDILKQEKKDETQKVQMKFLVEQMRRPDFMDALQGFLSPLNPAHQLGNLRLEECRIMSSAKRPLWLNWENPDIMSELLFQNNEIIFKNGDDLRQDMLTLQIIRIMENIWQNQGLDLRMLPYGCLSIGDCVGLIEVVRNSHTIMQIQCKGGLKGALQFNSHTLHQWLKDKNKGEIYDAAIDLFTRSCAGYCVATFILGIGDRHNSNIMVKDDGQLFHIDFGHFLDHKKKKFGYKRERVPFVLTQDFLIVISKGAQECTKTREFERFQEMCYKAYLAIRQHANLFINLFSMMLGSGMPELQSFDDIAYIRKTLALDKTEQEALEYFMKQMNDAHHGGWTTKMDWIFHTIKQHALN
Sequence of PI3Kα (P27986 whole entry partner): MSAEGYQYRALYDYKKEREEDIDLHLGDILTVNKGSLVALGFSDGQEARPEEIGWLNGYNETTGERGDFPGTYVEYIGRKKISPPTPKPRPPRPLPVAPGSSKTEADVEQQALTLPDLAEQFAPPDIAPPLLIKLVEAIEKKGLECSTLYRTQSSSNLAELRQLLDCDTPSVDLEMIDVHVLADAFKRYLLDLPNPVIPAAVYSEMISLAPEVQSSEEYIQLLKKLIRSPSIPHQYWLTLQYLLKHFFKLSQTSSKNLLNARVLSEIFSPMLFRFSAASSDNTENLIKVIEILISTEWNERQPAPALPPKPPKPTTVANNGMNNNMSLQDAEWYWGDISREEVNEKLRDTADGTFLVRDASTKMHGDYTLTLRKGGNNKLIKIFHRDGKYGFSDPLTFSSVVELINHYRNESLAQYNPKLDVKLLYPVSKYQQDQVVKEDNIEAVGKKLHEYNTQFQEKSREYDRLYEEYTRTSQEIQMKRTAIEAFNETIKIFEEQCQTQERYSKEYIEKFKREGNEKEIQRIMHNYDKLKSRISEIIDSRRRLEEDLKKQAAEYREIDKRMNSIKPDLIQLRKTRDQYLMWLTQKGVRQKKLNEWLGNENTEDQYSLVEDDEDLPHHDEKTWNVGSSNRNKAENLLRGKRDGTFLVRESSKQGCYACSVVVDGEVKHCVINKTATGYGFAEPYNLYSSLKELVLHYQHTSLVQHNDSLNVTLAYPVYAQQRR

SMILES: CCc1cc(-c2cnc3sc(N)nc3c2)cc2c1OCCN(c1nc(N)nc(C)c1C(C)C)C2 [Compound 17, 6-{4-[2-amino-6-methyl-5-(1-methylethyl)pyrimidin-4-yl]-9-ethyl-2,3,4,5-tetrahydro-1,4-benzoxazepin-7-yl}[1,3]thiazolo[5,4-b]pyridin-2-amine]
- IC50 (PI3Kα): 500 to 2500 nM
- IC50 (mTOR/GbL/Raptor (mTORC1)): ≤ 100 nM

SMILES: Cc1cc(-c2cnn(C)c2C)cc2c1OCCN(c1nc(N)nc(C)c1C(C)C)C2 [Compound 110, 4-[7-(1,5-dimethyl-1H-pyrazol-4-yl)-9-methyl-2,3-dihydro-1,4-benzoxazepin-4(5H)-yl]-6-methyl-5-(1-methylethyl)pyrimidin-2-amine]
- IC50 (PI3Kα): 500 to 2500 nM
- IC50 (mTOR/GbL/Raptor (mTORC1)): 100 to 500 nM

SMILES: CCNC(=O)c1sc(N2CCOc3c(C)cc(-c4cnc(Cl)c(NS(C)(=O)=O)c4)cc3C2)nc1C(C)C [Compound 33, 2-[7-{6-chloro-5-[(methylsulfonyl)amino]pyridin-3-yl}-9-methyl-2,3-dihydro-1,4-benzoxazepin-4(5H)-yl]-N-ethyl-4-(1-methylethyl)-1,3-thiazole-5-carboxamide]
- IC50 (PI3Kα): 500 to 2500 nM
- IC50 (mTOR/GbL/Raptor (mTORC1)): 100 to 500 nM

SMILES: C=Cc1cnc(N)nc1N1CCOc2c(C)cc(-c3cnc4sc(N)nc4c3)cc2C1 [Compound 89, 6-[4-(2-amino-5-ethenylpyrimidin-4-yl)-9-methyl-2,3,4,5-tetrahydro-1,4-benzoxazepin-7-yl][1,3]thiazolo[5,4-b]pyridin-2-amine]
- IC50 (PI3Kα): ≤ 100 nM
- IC50 (mTOR/GbL/Raptor (mTORC1)): ≤ 100 nM

SMILES: COC(=O)c1ccc(-c2cc(C)c3c(c2)CN(c2nc(N)nc(C)c2C(C)C)CCO3)cc1OC [Compound 68, methyl 4-{4-[2-amino-6-methyl-5-(1-methylethyl)pyrimidin-4-yl]-9-methyl-2,3,4,5-tetrahydro-1,4-benzoxazepin-7-yl}-2-(methyloxy)benzoate]
- IC50 (PI3Kα): 500 to 2500 nM
- IC50 (mTOR/GbL/Raptor (mTORC1)): 100 to 500 nM

SMILES: Cc1cc(-c2cccc(N)c2)cc2c1OCCN(c1nc(N)nc(C)c1C(C)C)C2 [Compound 69, 4-[7-(3-aminophenyl)-9-methyl-2,3-dihydro-1,4-benzoxazepin-4(5H)-yl]-6-methyl-5-(1-methylethyl)pyrimidin-2-amine]
- IC50 (PI3Kα): 500 to 2500 nM
- IC50 (mTOR/GbL/Raptor (mTORC1)): 100 to 500 nM

SMILES: Cc1cc(-c2cn(C)nc2C)cc2c1OCCN(c1nc(N)nc(C)c1C(C)C)C2 [Compound 109, 4-[7-(1,3-dimethyl-1H-pyrazol-4-yl)-9-methyl-2,3-dihydro-1,4-benzoxazepin-4(5H)-yl]-6-methyl-5-(1-methylethyl)pyrimidin-2-amine]
- IC50 (PI3Kα): 500 to 2500 nM
- IC50 (mTOR/GbL/Raptor (mTORC1)): 100 to 500 nM

SMILES: [2H]C1([2H])Oc2c(C)cc(-c3cnc4sc(N)nc4c3)cc2CN(c2nc(N)nc(C)c2C(C)C)C1([2H])[2H] [Compound 122, 6-{4-[2-amino-6-methyl-5-(1-methylethyl)pyrimidin-4-yl]-2,3,4,5-tetrahydro-1,4-benzoxazepin-7-yl}[1,3]thiazolo[5,4-b]pyridin-2-amine-d_4_]
- IC50 (PI3Kα): ≤ 100 nM
- IC50 (mTOR/GbL/Raptor (mTORC1)): ≤ 100 nM

SMILES: Cc1cc(-c2cnc(O)c(NS(C)(=O)=O)c2)cc2c1OCCN(c1nc(N)nc(C)c1C(C)C)C2 [Compound 19, N-(5-{4-[2-amino-6-methyl-5-(1-methylethyl)pyrimidin-4-yl]-9-methyl-2,3,4,5-tetrahydro-1,4-benzoxazepin-7-yl}-2-hydroxypyridin-3-yl)methanesulfonamide]
- IC50 (PI3Kα): 500 to 2500 nM
- IC50 (mTOR/GbL/Raptor (mTORC1)): ≤ 100 nM
